Reference: PMC12376758, “Restoration of CB1 receptor function in hippocampal GABAergic neurons rescues memory deficits in Huntington’s disease models” (Translational Neurodegeneration, 2025)
Where two headings read alike, the source gives them in different places.

Legend:
CB1R [1] = biological target: T1, CB1R (Mus musculus, UniProt P47746); experiment: biochemical; format: binding; settings: for Fraction high: CP55940 inhibition curve; for IC50: CP55940 vs [3H]SR141716A 2 nmol/L
T1 construct: from tissue
T1 sequence (P47746 whole entry): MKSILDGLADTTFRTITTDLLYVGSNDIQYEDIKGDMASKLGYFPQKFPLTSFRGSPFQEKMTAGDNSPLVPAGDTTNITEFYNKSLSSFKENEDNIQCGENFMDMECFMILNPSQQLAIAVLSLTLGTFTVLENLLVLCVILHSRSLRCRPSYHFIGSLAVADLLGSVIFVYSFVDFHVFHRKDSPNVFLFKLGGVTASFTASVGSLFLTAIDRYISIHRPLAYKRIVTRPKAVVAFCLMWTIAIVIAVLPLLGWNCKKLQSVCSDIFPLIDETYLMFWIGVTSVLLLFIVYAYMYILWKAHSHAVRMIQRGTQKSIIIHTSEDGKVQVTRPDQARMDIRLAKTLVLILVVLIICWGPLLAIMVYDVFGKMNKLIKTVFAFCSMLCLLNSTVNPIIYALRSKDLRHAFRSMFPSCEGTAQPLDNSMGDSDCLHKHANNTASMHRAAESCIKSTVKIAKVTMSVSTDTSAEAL

mHtt = test system: mHtt; design: method as in PMID 20929960; settings: pharmacological activation of CB1R, HD mouse models; cited from earlier work
aged mice = test system: aged mice; design: method as in PMID 16221768, PMID 36697430; settings: chronic low-dose; cited from earlier work
WT mice [2] = experiment: Open field test in WT mice (WIN dose selection); format: in vivo, mouse; settings: 13-week-old WT mice, WIN 1 and 4 mg/kg i.p., 10 days
Protocol: NOLT was conducted in a quadrangular open field (40 cm × 40 cm, 40 cm high) with a light intensity of 40 lx at controlled room conditions (19–22 °C, 40%–60% humidity). Mice were first habituated to the arena, which was devoid of objects but included spatial cues attached to the walls, for 15 min per session over two consecutive days. During this phase, spontaneous locomotor activity, as well as the time and the distance spent in the periphery versus the center, were measured. On the third day (NOLT training), two identical objects (A and A′) were placed in adjacent corners of the arena, and mice were allowed to explore for 10 min. […] Animal movements were tracked and recorded using the SMART® Junior software (Panlab, Spain). Exploration times were recorded to calculate the discrimination index as follows: discriminationindex=Timeexploringnovelobject-Timeexploringfamiliarobject/Timeexploringbothobjects×100\%
Exploration in the NORT followed the same conditions as described for the NOLT. […] During this phase, spontaneous locomotor activity and time/distance spent in the periphery versus the center of the arena were measured. […] Animal movements were tracked and recorded with the SMART® Junior software (Panlab, Spain). Exploration times were recorded and used to calculate the discrimination index as indicated above. […]

WT mice [3] = experiment: Novel object location task (NOLT) in WT mice (WIN dose selection); format: in vivo, mouse; settings: 13-week-old WT mice, WIN 1 and 4 mg/kg i.p., 10 days
Protocol: NOLT was conducted in a quadrangular open field (40 cm × 40 cm, 40 cm high) with a light intensity of 40 lx at controlled room conditions (19–22 °C, 40%–60% humidity). Mice were first habituated to the arena, which was devoid of objects but included spatial cues attached to the walls, for 15 min per session over two consecutive days. During this phase, spontaneous locomotor activity, as well as the time and the distance spent in the periphery versus the center, were measured. On the third day (NOLT training), two identical objects (A and A′) were placed in adjacent corners of the arena, and mice were allowed to explore for 10 min. Twenty-four hours later (NOLT testing), the object A was placed in the same location, while a new object (A″) was placed in the diagonally opposite corner. During the testing phase, mice were allowed to explore for 5 min. The arena was thoroughly cleaned between trials to eliminate residual odors. Animal movements were tracked and recorded using the SMART® Junior software (Panlab, Spain). Exploration times were recorded to calculate the discrimination index as follows: discriminationindex=Timeexploringnovelobject-Timeexploringfamiliarobject/Timeexploringbothobjects×100\%
(§1) Given the observed reduction of CB1R in the R6/1 hippocampus, we hypothesized that pharmacological activation of the remaining CB1Rs could mitigate HD-related memory decline.

WT mice [4] = experiment: Novel object recognition task (NORT) in WT mice (WIN dose selection); format: in vivo, mouse; settings: 13-week-old WT mice, WIN 1 and 4 mg/kg i.p., 10 days
Protocol: Exploration in the NORT followed the same conditions as described for the NOLT. Mice were first habituated to the arena, without objects, for 15 min on two consecutive days. During this phase, spontaneous locomotor activity and time/distance spent in the periphery versus the center of the arena were measured. On the third day (NORT training), mice were allowed to explore two identical objects (B and B′) for 10 min before being returned to their home cage. Twenty-four hours later (NORT testing), one of the familiar objects (B) and a new object (C) were placed in the same location as during the training session, and the mice were allowed to explore for 5 min. The arena was thoroughly cleaned between trials to prevent odor contamination. Animal movements were tracked and recorded with the SMART® Junior software (Panlab, Spain). Exploration times were recorded and used to calculate the discrimination index as indicated above.
as §1

WT mice [5] = experiment: Y-maze in WT mice (WIN dose selection); format: in vivo, mouse; settings: 13-week-old WT mice, WIN 1 and 4 mg/kg i.p., 10 days
Protocol: (§2) Spontaneous working memory was assessed using the Y-maze test. Mice were habituated to the testing room 1 h prior to the session. During the 8-min trial, each mouse was placed in the center of the maze and allowed to move freely. An arm entry was recorded when all four paws of the mouse were within the arm. The apparatus was cleaned thoroughly after each trial. Alternation was defined as successive entries into all three arms in an overlapping triplet sequence. Spontaneous alternation was calculated as the ratio of actual alternations to the total possible alternations, and the result was expressed as a percentage.
as §1

R6/1 mice = experiment: Y-maze spontaneous alternation in R6/1 mice; format: in vivo, mouse; settings: WIN 1 mg/kg i.p. 10 days
Protocol: To selectively induce CB1R expression in GABAergic neurons, we generated a plasmid for AAV8-mDlx5/6-CNR1. Infectious AAV viral particles were developed by the Viral Vector Production Unit (UPV) of the Universitat Autònoma de Barcelona (UAB). WT and R6/1 mice, aged 10 weeks, were anesthetized with ketamine hydrochloride/xylazine hydrochloride (i.p.; 100 and 10 mg/kg, respectively, Merck) and injected bilaterally in the hippocampus with AAV8-mDlx-CB1R or AAV8-mCherry (Vector Biolabs) (viral concentrations ranging from 1.8 × 10^9 to 1.5 × 10^9). The injection coordinates (in mm) from bregma (anteroposterior and lateral) and from skull (dorsoventral) were as follows: anteroposterior: − 2.0; lateral ± 1.25, and dorsoventral: − 1.3 (CA1). AAVs were injected for over 2 min, and the cannula was left in place for an additional 5 min to allow complete diffusion of the virus before being slowly retracted. Mice were monitored for 1 h post-injection and then returned to the housing facility for 3 weeks. […] For double-positive quantification, Pearson’s correlation coefficient was calculated using ImageJ2. […]
Spontaneous working memory was assessed using the Y-maze test. […] An arm entry was recorded when all four paws of the mouse were within the arm. […] Spontaneous alternation was calculated as the ratio of actual alternations to the total possible alternations, and the result was expressed as a percentage.

[6] = test system: Hdh^Q7/Q111 mutant KI mice; experiment: NOLT, NORT and Y-maze in Hdh^Q7/Q111 KI mice; format: in vivo, mouse; settings: 6 months, sub-chronic WIN 1 mg/kg i.p.
Protocol: as §2
NOLT was conducted in a quadrangular open field (40 cm × 40 cm, 40 cm high) with a light intensity of 40 lx at controlled room conditions (19–22 °C, 40%–60% humidity). […] During this phase, spontaneous locomotor activity, as well as the time and the distance spent in the periphery versus the center, were measured. […] Animal movements were tracked and recorded using the SMART® Junior software (Panlab, Spain). Exploration times were recorded to calculate the discrimination index as follows: discriminationindex=Timeexploringnovelobject-Timeexploringfamiliarobject/Timeexploringbothobjects×100\%
Exploration in the NORT followed the same conditions as described for the NOLT. […] Animal movements were tracked and recorded with the SMART® Junior software (Panlab, Spain). […]

CB1R [7] = format: in vivo, mouse; settings: for CB1R protein level, Western blot: total hippocampal lysates, WIN 1 mg/kg i.p. 10 days
CB1R [8] = format: in vivo, mouse; settings: hippocampus
Protocol: WT and R6/1 mice were deeply anesthetized with ketamine and xylazine (i.p injection; 100 mg/kg and 10 mg/kg, respectively) and immediately perfused transcardially with saline, followed by 4% paraformaldehyde in phosphate buffer. Brains were then removed, post-fixed overnight in the same solution, cryoprotected by immersion in 30% sucrose, and frozen in dry ice-cooled methylbutane. Serial coronal cryostat sections (30 μm) were collected through the entire brain in PBS as free-floating sections and processed as described previously [47].
Sections were rinsed three times in PBS, permeabilized, and blocked in PBS containing 0.3% Triton X-100 and 3% normal goat serum (Pierce Biotechnology, Rockford, IL) for 15 min at room temperature. […]
Stained coronal sections were examined using a Carl Zeiss LSM880 confocal microscope, a 10 × , 40 × and 63 × oil-immersion objective, 4 × digital zoom, and a standard Airy disc pinhole. For each mouse, at least three 30-µm thick coronal sections containing the hippocampal region were analyzed. […] The CB1R-, calbindin- and GAD67-integrated density was quantified with NIH ImageJ2 version 2.9.0/1.53t (Wayne Rasband, NIH). For double-positive quantification, Pearson’s correlation coefficient was calculated using ImageJ2. […]

[9] = test system: mutant huntingtin (mHtt) aggregates; experiment: EM48 immunostaining of mutant huntingtin nuclear aggregates in hippocampus; format: in vivo, mouse; settings: R6/1 mice, hippocampus (CA1), WIN 1 mg/kg i.p. vs vehicle
Protocol: Hippocampal coronal sections from vehicle- and WIN-treated R6/1 mice were first incubated for 30 min in ammonium chloride (NH4Cl) to quench endogenous fluorescence. They were then blocked for 1 h in PBS containing 0.3% Triton X-100 (Merck), 3% normal goat serum (Abcam), and 1% bovine serum albumin (BSA; Merck). After blocking, the sections were incubated overnight at 4 °C with anti-EM48 (1:1000, Merck). The EM48 antibody specifically recognizes huntingtin-containing nuclear aggregates by targeting the first 256 amino acids of human huntingtin protein [48]. […]
Imaging was performed using a Leica Confocal SP5 with a 63 × oil-immersion objective, ensuring consistent imaging conditions (pinhole size:1 AU, resolution: 1024 × 1024 pixels, and intensity). Automated quantification of nuclear huntingtin aggregates, including the number, intensity, and pixel area of EM48-stained nuclei in the hippocampus, was carried out using the ImageJ particle analysis plugin.
The density of aggregates was calculated as the ratio of the number of positive particles (NII) to the pixel area (mm^2). EM48 staining index (SI) was determined as the product of the mean number of stained nuclei and the average nuclear stain intensity, as described previously.

CB2R = experiment: Western blot of CB2R in total hippocampal lysates after sub-chronic WIN; format: in vivo, mouse; settings: WIN 1 mg/kg i.p. 10 days
CA1 pyramidal neurons [10] = experiment: Golgi-Cox dendritic spine density analysis; format: in vivo, mouse; settings: R6/1 mice, WIN 1 mg/kg i.p. sub-chronic
Protocol: Golgi-Cox impregnation was performed using the Rapid Golgistain Kit (FD Neurotechnologies, Columbia, MD) following the manufacturer's instructions. Mice were euthanized by cervical dislocation, and brains were rapidly removed. The two hemispheres were separated and incubated in a solution of A/B for 2 weeks. After this period, the brains were transferred to solution C for an additional 7 days. The brains were then processed using a cryostat to obtain 100-μm sections, which were mounted on gelatin-coated slides and left to dry for 24 h.
The sections were stained with the solutions provided in the kit and subsequently dehydrated before being mounted with DPX. Bright field images were acquired using a Leica AF6000 epifluorescence microscope with a × 63 numerical aperture objective for dendritic spine analysis. Segments of apical dendrites from hippocampal CA1 pyramidal neurons were selected for analysis. Dendritic spine density was manually quantified using the ImageJ Plug-in Cell Counter. Spines were marked in the appropriate focal plane preventing double counting, and only fully impregnated pyramidal neurons with their soma entirely within the thickness of the section were included. Dendritic segments ranging from 20 to 60 μm in length were analyzed. At least 60 dendrites per group from at least three mice per genotype were counted.

PSD95 = experiment: Western blot of PSD95 in hippocampal lysates; format: in vivo, mouse; settings: R6/1 mice, WIN 1 mg/kg i.p. 10 days
BDNF = experiment: Western blot of BDNF in hippocampal lysates; format: in vivo, mouse; settings: R6/1 mice, WIN 1 mg/kg i.p. 10 days
CA1 pyramidal neurons [11] = experiment: Ex vivo patch-clamp: depolarization-induced suppression of inhibition (DSI); format: in vivo, mouse; settings: hippocampal slices of WIN-treated R6/1 mice, n = 17 neurons
adult rats = test system: adult rats; design: method as in PMID 12888772; settings: chronic treatment; cited from earlier work
[12] = test system: rat model of cholinergic degeneration; design: method as in PMID 39489624; settings: low-dose WIN; cited from earlier work
CB1R [13] = test system: CB1R; design: method as in PMID 36979335; settings: rat model of cerebral ischemia; cited from earlier work
young rats = settings: chronic WIN; cited from earlier work
[14] = test system: models of vascular dementia and ischemic injury; design: method as in PMID 36979335, PMID 29945070; settings: cited from earlier work

## CCCCCCC(C)(C)c1ccc([C@@H]2C[C@H](O)CC[C@H]2CCCO)c(O)c1 [CP55940]
CB1R [1]; hippocampal membranes of R6/1 WIN (1 mg/kg) mice
  Fraction high: 0.6378^$$$
CB1R [1]; hippocampal membranes of WT WIN (1 mg/kg) mice
  Fraction high: 0.4654
CB1R [1]; hippocampal membranes of WT veh mice
  Fraction high: 0.4696
CB1R [1]; IC50 (single binding site), hippocampal membranes of R6/1 veh mice
  IC50: 0.0644 ± 0.0121 µM
CB1R [1]; IC50, first value (high-affinity site), hippocampal membranes of R6/1 WIN (1 mg/kg) mice
  IC50: 0.0109 ± 0.016 µM
CB1R [1]; IC50, first value (high-affinity site), hippocampal membranes of WT WIN (1 mg/kg) mice
  IC50: 0.018 ± 0.0167 µM
CB1R [1]; IC50, first value (high-affinity site), hippocampal membranes of WT veh mice
  IC50: 0.0232 ± 0.0188 µM
CB1R [1]; read-out: IC50, second value (low-affinity site), hippocampal membranes of R6/1 WIN (1 mg/kg) mice
  IC50: 0.382 µM
CB1R [1]; read-out: IC50, second value (low-affinity site), hippocampal membranes of WT WIN (1 mg/kg) mice
  IC50: 0.85 µM
CB1R [1]; read-out: IC50, second value (low-affinity site), hippocampal membranes of WT veh mice
  IC50: 1.14 µM

## CCCCCc1cc(O)c2c(c1)OC(C)(C)[C@@H]1CCC(C)=C[C@@H]21 [THC, Δ9-tetrahydrocannabinol]
mHtt
  mHtt accumulation: alleviates
Aged mice
  cognitive function: improves
  cortical spine density: increasing
  synaptic protein expression: increasing

## Cc1c(C(=O)c2cccc3ccccc23)c2cccc3c2n1[C@H](CN1CCOCC1)CO3 [WIN, WIN 55212–2]
WT mice [2]
  time spent in the periphery and the center of the open field arena: No adverse effects
  total distance traveled during the open field test: No adverse effects
WT mice [3]
  spatial memory (NOLT): no differences
WT mice [4]
  recognition memory (NORT): no differences
WT mice [5]
  working memory (Y-maze): no differences
R6/1 mice; presymptomatic stage (11 weeks, Fig. S4d)
  spontaneous alternation performance (Y-maze): significantly enhanced
R6/1 mice; symptomatic stage (13 weeks, Fig. 3d)
  spontaneous alternation performance (Y-maze): significantly enhanced
[6]
  memory deficits (NOLT, NORT, Y-maze): restored
CB1R [7]; Hdh^Q7/Q111 KI mice 6 months, hippocampal lysates, sub-chronic WIN
  CB1R levels, Western blot: trend of increase
CB1R [7]; R6/1 mice 13 weeks
  CB1R protein level, Western blot: restored
CB1R [7]; WT mice
  CB1R protein level, Western blot: significantly modulated
CB1R [8]; Hdh^Q7/Q111 KI mice, sub-chronic WIN
  CB1R staining, immunohistochemistry: restored to near WT levels
CB1R [8]; R6/1 mice, WIN 1 mg/kg i.p. 10 days
  CB1R levels, immunohistochemistry: comparable to those of WT controls
[9]
  density of intranuclear mHtt inclusion: significant reduction
CB2R; Hdh^Q7/Q111 KI mice 6 months
  CB2R levels, Western blot: did not significantly affect
CB2R; R6/1 mice 13 weeks
  CB2R levels, Western blot: did not significantly affect
CA1 pyramidal neurons [10]
  apical dendritic spine density reduction in CA1 pyramidal neurons: reversed
PSD95
  PSD95 protein level: restored
BDNF
  BDNF protein level: restored
CA1 pyramidal neurons [11]
  DSI: suppression of IPSC amplitude after 5-s depolarizing step (-70 to 0 mV): 52.70% ± 5.65
Adult rats
  performance in novel object recognition test: did not affect
  performance in open field test: did not affect
[12]
  CB1R activity in the cortex: increase
  cognitive performance: improved
CB1R [13]
  CB1R protein levels in the hippocampus: significantly increased
Young rats
  cytoskeletal remodeling in the hippocampus: increased dendritic thickness and branching
[14]
  neuroprotection: neuroprotective effects
